Assay results: PubChem BioAssay (NCI)
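Exposure lasted 48 hours, with cells grown in 96-well plates and compounds tested at five concentrations. GI50 is the concentration that inhibits growth by half. TGI: concentration producing complete growth inhibition.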

Key:
Assay in all cases: growth of human tumour cells (NCI), 48 h
RPMI-8226 leukemia = tested on: RPMI-8226 leukemia
NCI/ADR-RES ovarian = tested on: NCI/ADR-RES ovarian
DU-145 prostate = tested on: DU-145 prostate
MALME-3M melanoma = tested on: MALME-3M melanoma
CCRF-CEM leukemia = tested on: CCRF-CEM leukemia
KM12 colon = tested on: KM12 colon
UACC-62 melanoma = tested on: UACC-62 melanoma
A498 renal = tested on: A498 renal
LOX IMVI melanoma = tested on: LOX IMVI melanoma
EKVX NSCLC = tested on: EKVX NSCLC
M14 melanoma = tested on: M14 melanoma
MDA-MB-435 = tested on: MDA-MB-435
COLO 205 colon = tested on: COLO 205 colon
SK-MEL-5 melanoma = tested on: SK-MEL-5 melanoma
NCI-H226 lung = tested on: NCI-H226 lung
OVCAR-3 ovarian = tested on: OVCAR-3 ovarian
IGROV1 ovarian = tested on: IGROV1 ovarian
NCI-H460 lung = tested on: NCI-H460 lung
OVCAR-5 ovarian = tested on: OVCAR-5 ovarian
U251 CNS = tested on: U251 CNS
UO-31 renal = tested on: UO-31 renal
786-0 renal = tested on: 786-0 renal
UACC-257 melanoma = tested on: UACC-257 melanoma
NCI-H522 lung = tested on: NCI-H522 lung
CAKI-1 renal = tested on: CAKI-1 renal
BT-549 breast = tested on: BT-549 breast
ACHN renal = tested on: ACHN renal
SNB-75 CNS = tested on: SNB-75 CNS
SF-295 CNS = tested on: SF-295 CNS
SR leukemia = tested on: SR leukemia
OVCAR-4 ovarian = tested on: OVCAR-4 ovarian
SN12C renal = tested on: SN12C renal
SNB-19 CNS = tested on: SNB-19 CNS
SW-620 colon = tested on: SW-620 colon
PC-3 prostate = tested on: PC-3 prostate
HCT-116 colon = tested on: HCT-116 colon
HCT-15 colon = tested on: HCT-15 colon
TK-10 renal = tested on: TK-10 renal
HCC-2998 colon = tested on: HCC-2998 colon
OVCAR-8 ovarian = tested on: OVCAR-8 ovarian
A549 NSCLC = tested on: A549 NSCLC
MOLT-4 leukemia = tested on: MOLT-4 leukemia
NCI-H23 lung = tested on: NCI-H23 lung
SK-OV-3 ovarian = tested on: SK-OV-3 ovarian
MDA-MB-231 breast = tested on: MDA-MB-231 breast
SK-MEL-2 melanoma = tested on: SK-MEL-2 melanoma
HOP-92 NSCLC = tested on: HOP-92 NSCLC
MCF7 breast = tested on: MCF7 breast
K-562 leukemia = tested on: K-562 leukemia
RXF 393 renal = tested on: RXF 393 renal
SF-539 CNS = tested on: SF-539 CNS
HT29 colon = tested on: HT29 colon
HOP-62 NSCLC = tested on: HOP-62 NSCLC
T-47D breast = tested on: T-47D breast
SK-MEL-28 melanoma = tested on: SK-MEL-28 melanoma
HS 578T breast = tested on: HS 578T breast
SF-268 CNS = tested on: SF-268 CNS

SMILES: C=C1c2nc3ccccc3n2C=C(c2ccccc2)N1c1ccc(C)cc1
- TGI (RPMI-8226 leukemia): > 100 µM
- TGI (NCI/ADR-RES ovarian): > 100 µM
- TGI (DU-145 prostate): > 100 µM
- TGI (MALME-3M melanoma): > 100 µM
- TGI (CCRF-CEM leukemia): > 100 µM
- TGI (KM12 colon): 56.1 µM
- TGI (UACC-62 melanoma): > 100 µM
- TGI (A498 renal): > 100 µM
- TGI (LOX IMVI melanoma): > 100 µM
- TGI (EKVX NSCLC): > 100 µM
- TGI (M14 melanoma): > 100 µM
- TGI (MDA-MB-435): > 100 µM
- TGI (COLO 205 colon): > 100 µM
- TGI (SK-MEL-5 melanoma): > 100 µM
- TGI (NCI-H226 lung): > 100 µM
- TGI (OVCAR-3 ovarian): > 100 µM
- TGI (IGROV1 ovarian): > 100 µM
- TGI (NCI-H460 lung): > 100 µM
- TGI (OVCAR-5 ovarian): > 100 µM
- TGI (U251 CNS): > 100 µM
- TGI (UO-31 renal): > 100 µM
- TGI (786-0 renal): > 100 µM
- TGI (UACC-257 melanoma): > 100 µM
- TGI (NCI-H522 lung): > 100 µM
- TGI (CAKI-1 renal): > 100 µM
- TGI (BT-549 breast): > 100 µM
- TGI (ACHN renal): > 100 µM
- TGI (SNB-75 CNS): > 100 µM
- TGI (SF-295 CNS): > 100 µM
- TGI (SR leukemia): > 100 µM
- TGI (OVCAR-4 ovarian): > 100 µM
- TGI (SN12C renal): > 100 µM
- TGI (SNB-19 CNS): > 100 µM
- TGI (SW-620 colon): > 100 µM
- TGI (PC-3 prostate): > 100 µM
- TGI (HCT-116 colon): > 100 µM
- TGI (HCT-15 colon): > 100 µM
- TGI (TK-10 renal): > 100 µM
- TGI (HCC-2998 colon): 36.7 µM
- TGI (OVCAR-8 ovarian): > 100 µM
- TGI (A549 NSCLC): > 100 µM
- TGI (MOLT-4 leukemia): > 100 µM
- TGI (NCI-H23 lung): > 100 µM
- TGI (SK-OV-3 ovarian): > 100 µM
- TGI (MDA-MB-231 breast): > 100 µM
- TGI (SK-MEL-2 melanoma): > 100 µM
- TGI (HOP-92 NSCLC): > 100 µM
- TGI (MCF7 breast): > 100 µM
- TGI (K-562 leukemia): > 100 µM
- TGI (RXF 393 renal): > 100 µM
- TGI (SF-539 CNS): > 100 µM

SMILES: C[C@]12CCC3c4ccc(O)cc4CCC3C1CC[C@@H]2NC(=O)/C=C/c1ccc(O)c(O)c1 (stereo not given in full)
- GI50 (RPMI-8226 leukemia): 4.39 µM
- TGI (RPMI-8226 leukemia): 24.8 µM
- GI50 (NCI/ADR-RES ovarian): 16.2 µM
- TGI (NCI/ADR-RES ovarian): 41.7 µM
- GI50 (DU-145 prostate): 13.1 µM
- TGI (DU-145 prostate): 32.5 µM
- GI50 (MALME-3M melanoma): 25.1 µM
- TGI (MALME-3M melanoma): 70.9 µM
- GI50 (CCRF-CEM leukemia): 3.2 µM
- TGI (CCRF-CEM leukemia): 30 µM
- GI50 (KM12 colon): 34.2 µM
- TGI (KM12 colon): > 100 µM
- GI50 (UACC-62 melanoma): 11.5 µM
- TGI (UACC-62 melanoma): 24.4 µM
- GI50 (LOX IMVI melanoma): 3.86 µM
- TGI (LOX IMVI melanoma): 17.8 µM
- GI50 (EKVX NSCLC): 10.2 µM
- TGI (EKVX NSCLC): 31.2 µM
- GI50 (M14 melanoma): 10.6 µM
- TGI (M14 melanoma): 22.9 µM
- GI50 (MDA-MB-435): 13.6 µM
- TGI (MDA-MB-435): 39.1 µM
- GI50 (COLO 205 colon): 13.1 µM
- TGI (COLO 205 colon): 32.9 µM
- GI50 (SK-MEL-5 melanoma): 10.5 µM
- TGI (SK-MEL-5 melanoma): 25.2 µM
- GI50 (NCI-H226 lung): 12.3 µM
- TGI (NCI-H226 lung): 37.9 µM
- GI50 (OVCAR-3 ovarian): 21.5 µM
- TGI (OVCAR-3 ovarian): 48.7 µM
- GI50 (IGROV1 ovarian): 12.1 µM
- TGI (IGROV1 ovarian): 32.2 µM
- GI50 (NCI-H460 lung): 11.9 µM
- TGI (NCI-H460 lung): 35.3 µM
- GI50 (OVCAR-5 ovarian): 18.1 µM
- TGI (OVCAR-5 ovarian): 35.9 µM
- GI50 (U251 CNS): 6.63 µM
- TGI (U251 CNS): 21.1 µM
- GI50 (UO-31 renal): 11.9 µM
- TGI (UO-31 renal): 47 µM
- GI50 (786-0 renal): 10.4 µM
- TGI (786-0 renal): 29.2 µM
- GI50 (NCI-H522 lung): 6.25 µM
- TGI (NCI-H522 lung): 27.4 µM
- GI50 (CAKI-1 renal): 16.4 µM
- TGI (CAKI-1 renal): 48.4 µM
- GI50 (ACHN renal): 12.4 µM
- TGI (ACHN renal): 25.1 µM
- GI50 (SNB-75 CNS): 2.66 µM
- TGI (SNB-75 CNS): 9.36 µM
- GI50 (SF-295 CNS): 18.5 µM
- TGI (SF-295 CNS): 44.8 µM
- GI50 (SR leukemia): 7.26 µM
- TGI (SR leukemia): 42 µM
- GI50 (HT29 colon): 3.97 µM
- TGI (HT29 colon): 15.4 µM
- GI50 (OVCAR-4 ovarian): 5.94 µM
- TGI (OVCAR-4 ovarian): 24.7 µM
- GI50 (HOP-62 NSCLC): 16.1 µM
- TGI (HOP-62 NSCLC): 35.9 µM
- GI50 (SN12C renal): 13.4 µM
- TGI (SN12C renal): 34.2 µM
- GI50 (SNB-19 CNS): 13.7 µM
- TGI (SNB-19 CNS): 33.9 µM
- GI50 (SW-620 colon): 15.9 µM
- TGI (SW-620 colon): 45 µM
- GI50 (PC-3 prostate): 3.94 µM
- TGI (PC-3 prostate): 40.5 µM
- GI50 (HCT-116 colon): 10.6 µM
- TGI (HCT-116 colon): 23 µM
- GI50 (HCT-15 colon): 4.89 µM
- TGI (HCT-15 colon): 19 µM
- GI50 (TK-10 renal): 13.8 µM
- TGI (TK-10 renal): 50.6 µM
- GI50 (HCC-2998 colon): 15.6 µM
- TGI (HCC-2998 colon): 30.3 µM
- GI50 (OVCAR-8 ovarian): 10.4 µM
- TGI (OVCAR-8 ovarian): 29.1 µM
- GI50 (T-47D breast): 9.57 µM
- TGI (T-47D breast): > 100 µM
- GI50 (A549 NSCLC): 15.5 µM
- TGI (A549 NSCLC): 31.8 µM
- GI50 (MOLT-4 leukemia): 3.34 µM
- TGI (MOLT-4 leukemia): 24 µM
- GI50 (NCI-H23 lung): 11.8 µM
- TGI (NCI-H23 lung): 28.5 µM
- GI50 (SK-OV-3 ovarian): 14.8 µM
- TGI (SK-OV-3 ovarian): 31.6 µM
- GI50 (MDA-MB-231 breast): 14.5 µM
- TGI (MDA-MB-231 breast): 33.6 µM
- GI50 (SK-MEL-2 melanoma): 20.6 µM
- TGI (SK-MEL-2 melanoma): 51.3 µM
- GI50 (SK-MEL-28 melanoma): 9.59 µM
- TGI (SK-MEL-28 melanoma): 24.5 µM
- GI50 (HS 578T breast): 15.4 µM
- TGI (HS 578T breast): > 100 µM
- GI50 (SF-268 CNS): 11.2 µM
- TGI (SF-268 CNS): 45.3 µM
- GI50 (HOP-92 NSCLC): 5.59 µM
- TGI (HOP-92 NSCLC): 25.1 µM
- GI50 (MCF7 breast): 16.1 µM
- TGI (MCF7 breast): 49.1 µM
- GI50 (K-562 leukemia): 6.51 µM
- TGI (K-562 leukemia): 55.4 µM
